Where “and” joins values, the source holds several entries; their conditions need not be identical. Equal entries are not always repeated.
Columns and labels:
[1] = baseline ALT 27–45 IU/mL; cited from earlier work
HBV in HepG2.2.15 cell = conditions: cited from earlier work
[2] = Phase Ia tolerability in healthy subjects; format: in vivo, human; conditions: 9 days, unpublished observations
HBV [3] = test system: HBV
HBV [4] = experiment: Change in serum HBV pgRNA, phase 1b study in patients with chronic HBV infection; format: in vivo, human
[5] = preclinical study in dogs; cited from earlier work
HBV [6] = experiment: Change in serum HBV DNA, phase 1b study in patients with chronic HBV infection; format: in vivo, human
HBV [7] = experiment: Change in serum HBcrAg, phase 1b study in patients with chronic HBV infection; format: in vivo, human
[8] = Phase Ia pharmacokinetics of GLS4 in healthy subjects; format: in vivo, human; conditions: for mean steady-state Cmin: unpublished observations
HBV [9] = experiment: Change in serum HBeAg, phase 1b study in patients with chronic HBV infection; format: in vivo, human
[10] = Plasma pharmacokinetics of GLS4 in patients with chronic HBV infection; format: in vivo, human; conditions: for AUC0–24 / AUC0–t / Cmax / Ctrough / t1/2 / Df (degree of fluctuation): mean (CV)
HBV [11] = experiment: Change in serum HBsAg, phase 1b study in patients with chronic HBV infection; format: in vivo, human
[12] = Safety and tolerability in patients with chronic HBV infection; format: in vivo, human; conditions: for effect of silibinin and glutathione treatment on ALT flares: subjects with ALT flares, decline in ALT level
HBV [13] = conditions: after NVR 3–778 treatment; cited from earlier work
HBV [14] = conditions: cited from earlier work
[15] = cohort A: GLS4 120 mg/day + ritonavir 100 mg/day
[16] = cohort B: GLS4 240 mg/day + ritonavir 100 mg/day
[17] = cohort A (GLS4 120 mg/day + ritonavir 100 mg/day), Day 1 (24 Hours)
[18] = cohort A (GLS4 120 mg/day + ritonavir 100 mg/day), Day 28 (24 Hours)
[19] = cohort A (GLS4 120 mg/day + ritonavir 100 mg/day), Day 28 (120 Hours)
[20] = cohort B (GLS4 240 mg/day + ritonavir 100 mg/day), Day 1 (24 Hours)
[21] = cohort B (GLS4 240 mg/day + ritonavir 100 mg/day), Day 28 (24 Hours)
[22] = cohort B (GLS4 240 mg/day + ritonavir 100 mg/day), Day 28 (120 Hours)
[23] = cohort A: GLS4 120 mg/day + ritonavir 100 mg/day, n=8
[24] = cohort B: GLS4 240 mg/day + ritonavir 100 mg/day, n=8
[25] = cohort C: entecavir 0.5 mg/day, n=8

O=C(NCc1cnc(C(F)(F)F)s1)c1ccc2c(c1)NC(=O)c1ccccc1S2(=O)=O [ABI-H0731]
ALT flare in phase I clinical study [1]: without ALT flare

CCOC(=O)C1=C(CN2CCOCC2)NC(c2nccs2)=NC1c1ccc(F)cc1Br (centres unmarked) [GLS4]
90% effective concentration (EC90) (HBV in HepG2.2.15 cell; HepG2.2.15 cell, after correction with Human plasma protein binding): 0.0558 µg/mL | anti-HBV activity in vitro compared with Bay 41–4109 (HBV in HepG2.2.15 cell; in vitro): better anti-HBV activity in vitro than Bay 41–4109 | tolerability of GLS4 (120 or 240 mg) in combination with 100 mg ritonavir [2]: tolerated | efficacy in patients resistant to lamivudine or adefovir dipivoxil treatment (HBV [3]; cohort A: patient 013, cohort B: patient 020): effective | GLS4 resistance among patients (HBV [3]; cohorts A and B, 28 days of treatment): not observed | mean decline in pgRNA after 28 days of treatment (HBV [4]; [15]): −0.75 log10 copies/mL | mean decline in pgRNA after 28 days of treatment (HBV [4]; [16]): −1.78 log10 copies/mL | tolerability [5]: well tolerated | decline in HBV DNA levels in patients with poor response (HBV [6]; cohort A (GLS4 120 mg/day + ritonavir 100 mg/day), patients 003, 005 and 022): < 0.5 log10 IU/mL | mean decline in HBV DNA after 28 days of treatment (HBV [6]; [15]): −1.42 log10 IU/mL | mean decline in HBV DNA after 28 days of treatment (HBV [6]; [16]): −2.13 log10 IU/mL | mean change in HBV DNA following GLS4 treatment (HBV [6]; cohorts A and B (GLS4 120 or 240 mg/day + ritonavir 100 mg/day, 28 days)): −1.42 to −2.13 log10 IU/mL | mean decline in HBcrAg after 28 days of treatment (HBV [7]; [15]): −0.23 log10 U/mL | mean decline in HBcrAg after 28 days of treatment (HBV [7]; [16]): −0.5 log10 U/mL and −0.50 log10 U/mL | mean steady-state Cmin ([8]; GLS4 120 mg/day + ritonavir 100 mg/day for 9 days): 187.9 ng/mL | mean steady-state Cmin ([8]; GLS4 240 mg/day + ritonavir 100 mg/day for 9 days): 300.7 ng/mL | t1/2 of GLS4 monotherapy ([8]; without ritonavir, data not shown): 1.09 to 15.8 h | mean decline in HBeAg after 28 days of treatment (HBV [9]; [15]): −0.25 log10 IU/mL | mean decline in HBeAg after 28 days of treatment (HBV [9]; [16]): −0.30 log10 IU/mL | Median Tmax (minimum–maximum) [10, 17]: 3 (1.5,4) hours | AUC0–24 [10, 17]: 4268 (27) ng × hours/mL | AUC0–t [10, 17]: 4268 (27) ng × hours/mL | Cmax [10, 17]: 885 (27) ng/mL | Median Tmax (minimum–maximum) [10, 18]: 3 (0.5, 4) hours | AUC0–24 [10, 18]: 7871 (56) ng × hours/mL | AUC0–t [10, 18]: 7871(56) ng × hours/mL | Cmax [10, 18]: 865 (66) ng/mL | Ctrough [10, 18]: 218(59) ng/mL | t1/2 [10, 18]: 32.1(11.7) hours | Median Tmax (minimum–maximum) [10, 19]: 3 (0.5, 4) hours | AUC0–24 [10, 19]: 7871 (56) ng × hours/mL | Cmax [10, 19]: 865 (66) ng/mL | Df (degree of fluctuation) [10, 19]: 204 (36) % | t1/2 [10, 19]: 64.2 (14.8) hours | Median Tmax (minimum–maximum) [10, 20]: 3.5 (2, 4) hours | AUC0–24 [10, 20]: 8055 (34) ng × hours/mL | AUC0–t [10, 20]: 8055 (34) ng × hours/mL | Cmax [10, 20]: 1447 (39) ng/mL | t1/2 [10, 20]: 10.6 (3.3) hours | Median Tmax (minimum–maximum) [10, 21]: 3 (2, 4) hours | Cmax [10, 21]: 1461 (24) ng/mL | Ctrough [10, 21]: 205(63) ng/mL | t1/2 [10, 21]: 16.3(7.6) hours | Median Tmax (minimum–maximum) [10, 22]: 3 (2, 4) hours | Cmax [10, 22]: 1461 (24) ng/mL | Df (degree of fluctuation) [10, 22]: 265 (33) % | t1/2 [10, 22]: 67.3 (24.2) hours | accumulation rate with AUC0–24 (day 28 vs day 1) ([10]; cohorts A and B): 1.6–2.0 | accumulation rate with Cmax (day 28 vs day 1) ([10]; cohorts A and B): 1.1–1.2 | accumulation rate ([10]; cohorts A and B, day 28 vs day 1, AUC0–24 or Cmax): 1.1–2.0 | time to maximum GLS4 concentration (Tmax) ([10]; cohorts A and B, first and last dose (days 1 and 28), with ritonavir): 3–3.5 hours and ~ 3 hours | mean trough concentration (Ctrough) of GLS4 ([10]; cohorts A and B, steady state, with ritonavir 100 mg/day): 205 to 218 ng/mL | t1/2 of GLS4 when combined with ritonavir ([10]; patients, cohorts A and B): 64.2 to 67.3 h | mean decline in HBsAg after 28 days of treatment (HBV [11]; [15]): −0.06 log10 IU/mL | mean decline in HBsAg after 28 days of treatment (HBV [11]; [16]): −0.14 log10 IU/mL | tolerability in patients with chronic HBV infection ([12]; 120 mg GLS4 (+ ritonavir 100 mg), 28 days): tolerated | frequency of grade 3–4 adverse reactions [12, 23]: 2 | patients who experienced an adverse reaction [12, 23]: 5 | patients withdrawn due to ALT flare [12, 23]: 1 and 1/8 | subjects with alanine aminotransferase flare [12, 23]: 2 and 2/8 | frequency of grade 3–4 adverse reactions [12, 24]: 7 | patients who experienced an adverse reaction [12, 24]: 6 | patients withdrawn due to ALT flare [12, 24]: 2 and 2/8 | presence of SAEs [12, 24]: 1 | subjects with alanine aminotransferase flare [12, 24]: 3 and 3/8

O=C(Nc1cc(F)c(F)c(F)c1)c1ccc(F)c(S(=O)(=O)N2CCC(O)CC2)c1 [NVR 3–778]
mean change in HBV DNA (HBV [13]): −1.43 log10 IU/mL | mean decline in HBeAg (HBV [13]): −0.09 log10 IU/mL | mean decline in HBsAg (HBV [13]): −0.02 log10 IU/mL

C=C1[C@H](CO)[C@@H](O)C[C@@H]1n1cnc2c(=O)[nH]c(N)nc21 [entecavir, reference compound]
mean decline in pgRNA after 28 days of treatment (HBV [4]; cohort C: entecavir 0.5 mg/day): −0.96 log10 copies/mL | mean decline in HBV DNA after 28 days of treatment (HBV [6]; cohort C: entecavir 0.5 mg/day): −3.5 log10 IU/mL | mean decline in HBcrAg after 28 days of treatment (HBV [7]; cohort C: entecavir 0.5 mg/day): −0.44 log10 U/mL | mean decline in HBsAg after 28 days of treatment (HBV [11]; cohort C: entecavir 0.5 mg/day): −0.33 log10 IU/mL | patients who experienced an adverse reaction [12, 25]: 7 | patients withdrawn due to ALT flare [12, 25]: 1 | subjects with alanine aminotransferase flare [12, 25]: 3

N[C@@H](CCC(=O)N[C@@H](CS)C(=O)NCC(=O)O)C(=O)O [glutathione, reference compound]
antiviral effects (HBV [14]): no antiviral effects | effect of silibinin and glutathione treatment on ALT flares [12]: effective in reducing ALT flares

COc1cc(C2Oc3cc([C@H]4Oc5cc(O)cc(O)c5C(=O)[C@@H]4O)ccc3OC2CO)ccc1O (some centres unmarked) [silibinin, reference compound]
antiviral effects (HBV [14]): no antiviral effects | effect of silibinin and glutathione treatment on ALT flares [12]: effective in reducing ALT flares
